Columns and labels:
Experiment in all cases: relative viability (nuclei count vs DMSO), 5 days (fraction); higher = more cells survive
SK-MES-1 = tested on: SK-MES-1
Summary of the method: (§1)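 Lung cancer cell lines in 1536-well plates were dosed by pin tool the day after seeding, either with one drug alone or with a fixed anchor-drug dose plus five library-drug doses (not always all listed) in √10 steps. After 5 days, cells were fixed and their nuclei stained in one step (final 0.05% Triton X-100, 1% formaldehyde, 1 ug/ml Hoechst), then counted on 4× images. Relative viability is the nuclei count in treated wells divided by that in vehicle wells. Values are medians of duplicate plates.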

NCI-H1651 = tested on: NCI-H1651
Summary of the method: as §1

NCI-H460 = tested on: NCI-H460
Summary of the method: as §1

LCLC-103H = tested on: LCLC-103H
Summary of the method: as §1

NCI-H1355 = tested on: NCI-H1355
Summary of the method: as §1

PC-14 = tested on: PC-14
Summary of the method: as §1

NCI-H322M = tested on: NCI-H322M
Summary of the method: as §1

NCI-H520 = tested on: NCI-H520
Summary of the method: as §1

NCI-H727 = tested on: NCI-H727
Summary of the method: as §1

RERF-LC-KJ = tested on: RERF-LC-KJ
Summary of the method: as §1

NCI-H596 = tested on: NCI-H596
Summary of the method: as §1

NCI-H1915 = tested on: NCI-H1915
Summary of the method: as §1

NCI-H661 = tested on: NCI-H661
Summary of the method: as §1

LXF-289 = tested on: LXF-289
Summary of the method: as §1

SW 900 = tested on: SW 900
Summary of the method: as §1

NCI-H1563 = tested on: NCI-H1563
Summary of the method: as §1

NCI-H3122 = tested on: NCI-H3122
Summary of the method: as §1

NCI-H1755 = tested on: NCI-H1755
Summary of the method: as §1

NCI-H2347 = tested on: NCI-H2347
Summary of the method: as §1

NCI-H441 = tested on: NCI-H441
Summary of the method: as §1

COc1cc2nccc(Oc3ccc(NC(=O)Nc4cc(C)on4)c(Cl)c3)c2cc1OC [Tivozanib] + COc1cc2c(Oc3ccc(NC(=O)C4(C(=O)Nc5ccc(F)cc5)CC4)cc3F)ccnc2cc1OCCCN1CCOCC1 [Foretinib] (partner 0.25 µM)
relative viability (SK-MES-1; first compound 0.005 µM): 0.862 | relative viability (SK-MES-1; first compound 0.01581 µM): 0.974 | relative viability (SK-MES-1; first compound 0.05 µM): 1.01 | relative viability (SK-MES-1; first compound 0.1581 µM): 0.981 | relative viability (SK-MES-1; first compound 0.5 µM): 0.924 | relative viability (NCI-H1651; first compound 0.005 µM): 0.784 | relative viability (NCI-H1651; first compound 0.01581 µM): 0.78 | relative viability (NCI-H1651; first compound 0.05 µM): 0.842 | relative viability (NCI-H1651; first compound 0.1581 µM): 0.645 | relative viability (NCI-H1651; first compound 0.5 µM): 0.831 | relative viability (NCI-H460; first compound 0.005 µM): 0.983 | relative viability (NCI-H460; first compound 0.01581 µM): 0.948 | relative viability (NCI-H460; first compound 0.05 µM): 0.972 | relative viability (NCI-H460; first compound 0.1581 µM): 1.01 | relative viability (NCI-H460; first compound 0.5 µM): 0.96 | relative viability (LCLC-103H; first compound 0.005 µM): 0.905 | relative viability (LCLC-103H; first compound 0.01581 µM): 0.809 | relative viability (LCLC-103H; first compound 0.05 µM): 0.686 | relative viability (LCLC-103H; first compound 0.1581 µM): 0.849 | relative viability (LCLC-103H; first compound 0.5 µM): 0.881 | relative viability (NCI-H1355; first compound 0.005 µM): 0.937 | relative viability (NCI-H1355; first compound 0.01581 µM): 0.978 | relative viability (NCI-H1355; first compound 0.05 µM): 0.975 | relative viability (NCI-H1355; first compound 0.1581 µM): 0.929 | relative viability (NCI-H1355; first compound 0.5 µM): 0.966 | relative viability (PC-14; first compound 0.005 µM): 0.911 | relative viability (PC-14; first compound 0.01581 µM): 0.959 | relative viability (PC-14; first compound 0.05 µM): 1.01 | relative viability (PC-14; first compound 0.1581 µM): 1.09 | relative viability (PC-14; first compound 0.5 µM): 0.904 | relative viability (NCI-H322M; first compound 0.005 µM): 0.843 | relative viability (NCI-H322M; first compound 0.01581 µM): 1.01 | relative viability (NCI-H322M; first compound 0.05 µM): 0.989 | relative viability (NCI-H322M; first compound 0.1581 µM): 0.926 | relative viability (NCI-H322M; first compound 0.5 µM): 0.969 | relative viability (NCI-H520; first compound 0.005 µM): 0.595 | relative viability (NCI-H520; first compound 0.01581 µM): 0.702 | relative viability (NCI-H520; first compound 0.05 µM): 0.74 | relative viability (NCI-H520; first compound 0.1581 µM): 0.644 | relative viability (NCI-H520; first compound 0.5 µM): 0.712 | relative viability (NCI-H727; first compound 0.005 µM): 0.963 | relative viability (NCI-H727; first compound 0.01581 µM): 1.04 | relative viability (NCI-H727; first compound 0.05 µM): 1.32 | relative viability (NCI-H727; first compound 0.1581 µM): 0.853 | relative viability (NCI-H727; first compound 0.5 µM): 0.89 | relative viability (RERF-LC-KJ; first compound 0.005 µM): 0.821 | relative viability (RERF-LC-KJ; first compound 0.01581 µM): 0.79 | relative viability (RERF-LC-KJ; first compound 0.05 µM): 0.849 | relative viability (RERF-LC-KJ; first compound 0.1581 µM): 0.919 | relative viability (RERF-LC-KJ; first compound 0.5 µM): 0.863 | relative viability (NCI-H596; first compound 0.005 µM): 0.697 | relative viability (NCI-H596; first compound 0.01581 µM): 0.915 | relative viability (NCI-H596; first compound 0.05 µM): 0.846 | relative viability (NCI-H596; first compound 0.5 µM): 0.879 | relative viability (NCI-H1915; first compound 0.005 µM): 1.08 | relative viability (NCI-H1915; first compound 0.01581 µM): 1.07 | relative viability (NCI-H1915; first compound 0.05 µM): 1.1 | relative viability (NCI-H1915; first compound 0.1581 µM): 1.13 | relative viability (NCI-H1915; first compound 0.5 µM): 1.09 | relative viability (NCI-H661; first compound 0.005 µM): 1 | relative viability (NCI-H661; first compound 0.01581 µM): 0.997 | relative viability (NCI-H661; first compound 0.05 µM): 1.03 | relative viability (NCI-H661; first compound 0.1581 µM): 0.806 | relative viability (NCI-H661; first compound 0.5 µM): 0.987 | relative viability (LXF-289; first compound 0.005 µM): 0.945 | relative viability (LXF-289; first compound 0.01581 µM): 0.933 | relative viability (LXF-289; first compound 0.05 µM): 0.999 | relative viability (LXF-289; first compound 0.1581 µM): 0.986 | relative viability (LXF-289; first compound 0.5 µM): 0.963 | relative viability (SW 900; first compound 0.005 µM): 0.806 | relative viability (SW 900; first compound 0.01581 µM): 0.884 | relative viability (SW 900; first compound 0.05 µM): 0.733 | relative viability (SW 900; first compound 0.1581 µM): 0.697 | relative viability (SW 900; first compound 0.5 µM): 0.924 | relative viability (NCI-H1563; first compound 0.005 µM): 0.853 | relative viability (NCI-H1563; first compound 0.01581 µM): 1.01 | relative viability (NCI-H1563; first compound 0.05 µM): 0.888 | relative viability (NCI-H1563; first compound 0.1581 µM): 0.847 | relative viability (NCI-H1563; first compound 0.5 µM): 0.867 | relative viability (NCI-H3122; first compound 0.005 µM): 0.913 | relative viability (NCI-H3122; first compound 0.01581 µM): 0.962 | relative viability (NCI-H3122; first compound 0.05 µM): 0.92 | relative viability (NCI-H3122; first compound 0.1581 µM): 1.05 | relative viability (NCI-H3122; first compound 0.5 µM): 0.953 | relative viability (NCI-H1755; first compound 0.005 µM): 0.916 | relative viability (NCI-H1755; first compound 0.01581 µM): 0.865 | relative viability (NCI-H1755; first compound 0.05 µM): 0.945 | relative viability (NCI-H1755; first compound 0.1581 µM): 0.988 | relative viability (NCI-H1755; first compound 0.5 µM): 0.881 | relative viability (NCI-H2347; first compound 0.005 µM): 0.905 | relative viability (NCI-H2347; first compound 0.01581 µM): 1.09 | relative viability (NCI-H2347; first compound 0.05 µM): 0.937 | relative viability (NCI-H2347; first compound 0.5 µM): 0.845 | relative viability (NCI-H441; first compound 0.005 µM): 0.838 | relative viability (NCI-H441; first compound 0.01581 µM): 0.893 | relative viability (NCI-H441; first compound 0.05 µM): 1.12 | relative viability (NCI-H441; first compound 0.1581 µM): 1.11 | relative viability (NCI-H441; first compound 0.5 µM): 0.934

Source: the supplement of paper PMC10307832
